Test results reported in US12054494B2, “Compound with anticancer activity” (KYOWA KIRIN CO., LTD., priority 2018, dated 2024).

These molecules were tested on MYC mRNA expression in SU-DHL-4 cells (assay: Suppressive effect on MYC mRNA expression (qRT-PCR)). Details: test compound 100 nmol/L, 6 hours.
Type: cell-based
Protocol: Suppressive Effect on MYC mRNA Expression
SU-DHL-4 cells were cultured at 37° C. using a carbon dioxide gas incubator (95% air, 5% CO2) in RPMI1640 medium in which FBS in an amount to give a final concentration of 10 vol % and PS in an amount to give a final concentration of 1 vol % were added. The cells were passaged twice a week at a volume of 20-40 mL so as to maintain a cell concentration of 1×10^6 cells/mL or less.
The cultured SU-DHL-4 cells were seeded at 6×10^5 cells/well in a transparent 6-well plate (Code No. 140675, Thermo Fisher Scientific). After seeding, the cells were precultured at 37° C. in a carbon dioxide gas incubator for 18 to 25 hours. Next, a 0.1 mmol/L DMSO solution of the test compound was prepared, diluted so that the concentration will be 200 times the final concentration in the RPMI1640 medium containing the above FBS and PS, and 1/200 volume of the diluted solution was added to each well. At this time, the final concentration of DMSO was adjusted to be 0.1 vol %. After adding the test compound, the cells were cultured at 37° C. in a carbon dioxide gas incubator for 6 hours.
Then, the cells were collected by centrifugation and used for extraction of mRNA. mRNA extraction from cells was performed using Maxwell® 16 LEV simplyRNA Purification Kits (Code No. AS1270, Promega). The mRNA recovery protocol was performed according to the manufacturer's recommended protocol attached to the kit.
0.001 mg of the recovered mRNA was converted to cDNA by SuperScript IV VILO Master Mix with ezDNase Enzyme (Code No. 11766050, Thermo Fisher Scientific). The cDNA conversion was performed, according to the manufacturer's recommended protocol attached to the kit, in 0.020 mL of the reaction solution, and GeneAmp® PCR System 9700 (Applied Biosystems) was used. The cDNA-converted sample was diluted 10-fold by adding 0.180 mL of RNase Free Water (Code No. 10977-023, Thermo Fisher Scientific) and used for quantitative real-time polymerase chain reaction (qRT-PCR). For the calibration curve of qRT-PCR, 0.08 mL of RNase Free Water was added to a cDNA sample using DMSO as a test compound for 5-fold dilution. Further, two 5-fold dilutions were prepared stepwise, and these three samples were used as the calibration curve samples.
The following reagents were used for qRT-PCR: TaqMan Gene Expression Assays, Inventoried (Primer probe: Code No. 4331182, Thermo Fisher Scientific, Assay ID: (i) MYC: Hs00153408_m1, (ii) ACTB: Hs01060665_g1, (iii) GAPDH: Hs04420697_g1, (iv) HPRT1: Hs02800695_m1); 2X TaqManR Fast Universal PCR Master Mix, no AmpEraseR UNG (Master Mix: Code No. 4367846, Thermo Fisher Scientific).
Primer probe (0.001 mL), Master Mix (0.010 mL), water (0.004 mL) and the diluted cDNA sample (0.005 mL) were mixed, and qRT-PCR analysis was performed. For qRT-PCR analysis, QuantStudio 7 Flex (Thermo Fisher Scientific) or 7500 Fast Real-Time PCR (Applied Biosystems) was used to measure in Fast mode and analyze. The expression level of the MYC gene was determined by quantifying ACTB, GAPDH, and HPRT1 as housekeeping genes and correcting by the following formula to calculate the suppression rate of (%) of MYC mRNA expression when the test compound was allowed to act at a concentration of 100 nmol/L. Corrected MYC expression=A/B • A: MYC expression level • B: Geometric mean of expression levels of ACTB, GAPDH and HPRT1
Using the corrected values, the suppression rate of MYC expression for the wells to which […] was calculated by the following formula. Suppression rate of MYC expression (%)=100−C/D×100 • C: Corrected MYC expression level in a well containing test compound • D: Corrected MYC expression level in a well to which test compound was not added

| Structure (SMILES) | Suppression rate of MYC mRNA expression |
| --- | --- |
| CCC(=O)N1c2ccccc2[C@H](Nc2ccc(C(=O)NCCNS(=O)(=O)c3ccc(N[C@@H]4C[C@H](C)N(C(=O)CC)c5ccccc54)cc3)cc2)C[C@@H]1C [Compound 4d, 4-{[(2S,4R)-2-Methyl-1-propionyl-1,2,3,4-tetrahydroquinolin-4-yl]amino}-N-{2-[(4-{[(2S,4R)-2-methyl-1-propionyl-1,2,3,4-tetrahydroquinolin-4-yl]amino}phenyl)sulfonamide]ethyl}benzamide] | 98.3% |
| CCC(=O)N1c2ccccc2[C@H](Nc2ccc(Cn3cc(C(=O)Nc4ccc(N[C@@H]5C[C@H](C)N(C(=O)CC)c6ccccc65)cc4)nn3)cc2)C[C@@H]1C [Compound 5j, 1-(4-(((2S,4R)-2-Methyl-1-propionyl-1,2,3,4-tetrahydroquinolin-4-yl)amino)benzyl)-N-(4-(((2S,4R)-2-methyl-1-propionyl-1,2,3,4-tetrahydroquinolin-4-yl)amino)phenyl)-1H-1,2,3-triazolee-4-carboxamide] | 96.8% |
| CCC(=O)N1c2ccccc2[C@H](Nc2ccc(CCC(=O)NCC3(NC4CCC(N[C@@H]5C[C@H](C)N(C(=O)CC)c6ccccc65)CC4)COC3)cc2)C[C@@H]1C (stereo partly shown) [Compound 7h] | 97.5% |
| CCC(=O)N1c2ccccc2[C@H](Nc2ccc(NC(=O)CCCC(=O)NC3CCC(N[C@@H]4C[C@H](C)N(C(=O)CC)c5ccccc54)CC3)cc2)C[C@@H]1C (stereo partly drawn) [Compound 7o, N^1-((1R,4r)-4-(((2S,4R)-2-Methyl-1-propionyl-1,2,3,4-tetrahydroquinolin-4-yl)amino)cyclohexyl)-N^5-(4-(((2S,4R)-2-methyl-1-propionyl-1,2,3,4-tetrahydroquinolin-4-yl)amino)phenyl)glutaramide] | 97.4% |
| CCC(=O)N1c2ccccc2[C@H](Nc2ccc(NC(=O)N3CCN(C(=O)C4CCC(N[C@@H]5C[C@H](C)N(C(=O)CC)c6ccccc65)CC4)CC3)cc2)C[C@@H]1C (stereo partly drawn) [Compound 7p, 4-((1R,4r)-4-(((2S,4R)-2-Methyl-1-propionyl-1,2,3,4-tetrahydroquinolin-4-yl)amino)cyclohexane-1-carbonyl)-N-(4-(((2S,4R)-2-methyl-1-propionyl-1,2,3,4-tetrahydroquinolin-4-yl)amino)phenyl)piperazine-1-carboxamide] | 97.9% |
| CCC(=O)N1c2ccccc2[C@H](Nc2ccc(-c3nnc(CNC(=O)[C@H]4CC[C@H](N[C@@H]5C[C@H](C)N(C(=O)CC)c6ccccc65)CC4)o3)cc2)C[C@@H]1C [Compound 7q, (1R,4R)-4-(((2S,4R)-2-Methyl-1-propionyl-1,2,3,4-tetrahydroquinolin-4-yl)amino)-N-((5-(4-(((2S,4R)-2-methyl-1-propionyl-1,2,3,4-tetrahydroquinolin-4-yl)amino)phenyl)-1,3,4-oxadiazol-2-yl)methyl)cyclohexane-1-carboxamide] | 97.4% |
| CCC(=O)N1c2ccccc2[C@H](Nc2ccc(NC(=O)CNC(=O)N[C@H]3CC[C@H](N[C@@H]4C[C@H](C)N(C(=O)CC)c5ccccc54)CC3)cc2)C[C@@H]1C [Compound 8j, 2-(3-((1R,4R)-4-(((2S,4R)-2-Methyl-1-propionyl-1,2,3,4-tetrahydroquinolin-4-yl)amino)cyclohexyl)ureido)-N-(4-(((2S,4R)-2-methyl-1-propionyl-1,2,3,4-tetrahydroquinolin-4-yl)amino)phenyl)acetamide] | 97.2% |
| CCC(=O)N1c2ccccc2[C@H](Nc2ccc(C(=O)N3CC(C(=O)N[C@H]4CC[C@H](N[C@@H]5C[C@H](C)N(C(=O)CC)c6ccccc65)CC4)C3)cc2)C[C@@H]1C [Compound 8r, 1-(4-(((2S,4R)-2-Methyl-1-propionyl-1,2,3,4-tetrahydroquinolin-4-yl)amino)benzoyl)-N-((1R,4R)-4-(((2S,4R)-2-methyl-1-propionyl-1,2,3,4-tetrahydroquinolin-4-yl)amino)cyclohexyl)azetidine-3-carboxamide] | 96.7% |
| CCC(=O)N1c2ccccc2[C@H](Nc2ccc(NC(=O)CCCC(=O)NC3CCN(Cc4cc(O)cc(-c5c(C)noc5C)c4)CC3)cc2)C[C@@H]1C [Compound 12c, N^1-(1-(3-(3,5-Dimethylisoxazol-4-yl)-5-hydroxybenzyl)piperidinyl)-N^5-(4-(((2S,4R)-2-methyl-1-propionyl-1,2,3,4-tetrahydroquinolin-4-yl)amino)phenyl)glutaramide] | 97.8% |
| CCC(=O)N1c2ccccc2[C@H](Nc2ccc(C(=O)NCCCNC(=O)c3ccc(C4=N[C@@H](CC(=O)OC5CCC(O)CC5)c5nnc(C)n5-c5sc(C)c(C)c54)cc3)cc2)C[C@@H]1C (stereo partly drawn) [Compound 13d, 4-Hydroxycyclohexyl 2-((S)-2,3,9-trimethyl-4-(4-((3-(4-(((2S,4R)-2-methyl-1-propionyl-1,2,3,4-tetrahydroquinolin-4-yl)amino)benzamide)propyl)carbamoyl)phenyl)-6H-thieno[3,2-f][1,2,4]triazolo[4,3-a][1,4]diazepin-6-yl)acetate] | 97.2% |
| CCC(=O)N1c2ccccc2[C@H](Nc2ccc(C(=O)NCCCNC(=O)c3ccc(C4=N[C@@H](CC(=O)OCCCOC)c5nnc(C)n5-c5sc(C)c(C)c54)cc3)cc2)C[C@@H]1C [Compound 13h, 3-Methoxypropyl 2-((S)-2,3,9-trimethyl-4-(4-((3-(4-(((2S,4R)-2-methyl-1-propionyl-1,2,3,4-tetrahydroquinolin-4-yl)amino)benzamide)propyl)carbamoyl)phenyl)-6H-thieno[3,2-f][1,2,4]triazolo[4,3-a][1,4]diazepin-6-yl)acetate] | 97.4% |
| CCC(=O)N1c2ccccc2[C@H](Nc2ccc(NC(=O)CCCC(=O)Nc3ccc(Cn4c(C(=O)OCCN(C)C)cc5c4CCCC5=O)cc3)cc2)C[C@@H]1C [Compound 15a, 2-(Dimethylamino)ethyl 1-(4-(5-((4-(((2S,4R)-2-methyl-1-propionyl-1,2,3,4-tetrahydroquinolin-4-yl)amino)phenyl)amino)-5-oxopentanamide)benzyl)-4-oxo-4,5,6,7-tetrahydro-1H-indole-2-carboxylate] | 97.6% |
| Cc1sc2c(c1C)C(c1ccc(Cl)cc1)=N[C@@H](CC(=O)NCCOCCOCCOCCOCCOCCOCCOCCNC(=O)C[C@@H]1N=C(c3ccc(Cl)cc3)c3c(sc(C)c3C)-n3c(C)nnc31)c1nnc(C)n1-2 [compound 2, reference compound] | 57.7% |
